Measurements: US20260130395A1, “Water Dispersible Botanical Compositions” (Aquila Black Limited, priority 2021, published 2026)

Legend:
[1] = Stability of Nanoemulsion Concentrate 3 (α-tocopherol and Vitamin B12 content) by LCMSMS; type: physicochemical; settings: for Stability of α-tocopherol in Nanoemulsion Concentrate 3: average of triplicate
Procedure: At each time period (0, 7, 28, 60, 120, 150 and 180 days), triplicate samples were analysed for content of α-tocopherol and Vitamin B12.
(FIGS. 14 and 15, Table 13). Data reported in Table 13 and plotted in FIGS. 14 and 15 are average values of the triplicate measurements taken.

[2] = Stability of cannabinoid compounds and Vitamin E components in Beverage 2 (AB Red) by LCMSMS; type: physicochemical; settings: stored at 8° C.
Procedure: The stability of the plant-derived cannabinoid compounds and Vitamin E components of the beverage stored 8° C. and at room temperature (21-25° C.) were monitored, over a period of 570 days via Liquid Chromatography-tandem Mass Spectrometry [LCMSMS, AGilent 6590, C18, 3×50 mm, 2.7 m (Agilent InfinityLab Poroshell 120 EC-C18), Electrospray Ionization detector]. The LCMSMS was calibrated for 0-50 ng/ml cannabinoids with the same resin material used in the preparation of the concentrates. At each time period, 100 ml of beverage was diluted with 10 ml of methanol and injected into the LCMSMS for analysis.

SMILES: Cc1c(C)c2c(c(C)c1O)CC[C@@](C)(CCC[C@H](C)CCC[C@H](C)CCCC(C)C)O2 [α-Tocopherol]
- Stability of α-tocopherol in Nanoemulsion Concentrate 3 ([1]; Refrigerated (2-4° C.), 0 days): 0.25 mg/mL
- Stability of α-tocopherol in Nanoemulsion Concentrate 3 ([1]; Refrigerated (2-4° C.), 7 days): 0.25 mg/mL
- Stability of α-tocopherol in Nanoemulsion Concentrate 3 ([1]; Refrigerated (2-4° C.), 28 days): 0.23 mg/mL
- Stability of α-tocopherol in Nanoemulsion Concentrate 3 ([1]; Refrigerated (2-4° C.), 60 days): 0.26 mg/mL
- Stability of α-tocopherol in Nanoemulsion Concentrate 3 ([1]; Refrigerated (2-4° C.), 120 days): 0.26 mg/mL
- Stability of α-tocopherol in Nanoemulsion Concentrate 3 ([1]; Refrigerated (2-4° C.), 150 days): 0.23 mg/mL
- Stability of α-tocopherol in Nanoemulsion Concentrate 3 ([1]; Refrigerated (2-4° C.), 180 days): 0.27 mg/mL
- Stability of α-tocopherol in Nanoemulsion Concentrate 3 ([1]; Room Temperature (21-25° C.), 0 days): 0.25 mg/mL
- Stability of α-tocopherol in Nanoemulsion Concentrate 3 ([1]; Room Temperature (21-25° C.), 7 days): 0.21 mg/mL
- Stability of α-tocopherol in Nanoemulsion Concentrate 3 ([1]; Room Temperature (21-25° C.), 28 days): 0.22 mg/mL
- Stability of α-tocopherol in Nanoemulsion Concentrate 3 ([1]; Room Temperature (21-25° C.), 60 days): 0.23 mg/mL
- Stability of α-tocopherol in Nanoemulsion Concentrate 3 ([1]; Room Temperature (21-25° C.), 120 days): 0.20 mg/mL
- Stability of α-tocopherol in Nanoemulsion Concentrate 3 ([1]; Room Temperature (21-25° C.), 150 days): 0.21 mg/mL
- Stability of α-tocopherol in Nanoemulsion Concentrate 3 ([1]; Room Temperature (21-25° C.), 180 days): 0.17 mg/mL
- stability in Nanoemulsion Concentrate 3 (in words) ([1]; after 180 days stored at 21-25° C.): some slight degradation
- stability in Nanoemulsion Concentrate 3 (in words) ([1]; stored at 2-4° C., 180 days): high degree of stability
- Stability of Vitamin Es in AB Red ([2]; 0 days): 25.3 µg/mL
- Stability of Vitamin Es in AB Red ([2]; 1 days): 25.2 µg/mL
- Stability of Vitamin Es in AB Red ([2]; 2 days): 24.9 µg/mL
- Stability of Vitamin Es in AB Red ([2]; 3 days): 25.3 µg/mL
- Stability of Vitamin Es in AB Red ([2]; 5 days): 24.2 µg/mL
- Stability of Vitamin Es in AB Red ([2]; 8 days): 23.7 µg/mL
- Stability of Vitamin Es in AB Red ([2]; 9 days): 24.6 µg/mL
- Stability of Vitamin Es in AB Red ([2]; 10 days): 24.9 µg/mL
- Stability of Vitamin Es in AB Red ([2]; 11 days): 23.9 µg/mL
- Stability of Vitamin Es in AB Red ([2]; 12 days): 24.4 µg/mL
- Stability of Vitamin Es in AB Red ([2]; 15 days): 25.6 µg/mL
- Stability of Vitamin Es in AB Red ([2]; 16 days): 24.5 µg/mL
- Stability of Vitamin Es in AB Red ([2]; 17 days): 23.6 µg/mL
- Stability of Vitamin Es in AB Red ([2]; 18 days): 24.1 µg/mL
- Stability of Vitamin Es in AB Red ([2]; 19 days): 24.0 µg/mL
- Stability of Vitamin Es in AB Red ([2]; 22 days): 25.0 µg/mL
- Stability of Vitamin Es in AB Red ([2]; 23 days): 23.2 µg/mL
- Stability of Vitamin Es in AB Red ([2]; 24 days): 24.3 µg/mL
- Stability of Vitamin Es in AB Red ([2]; 25 days): 23.6 µg/mL
- Stability of Vitamin Es in AB Red ([2]; 26 days): 25.2 µg/mL
- Stability of Vitamin Es in AB Red ([2]; 29 days): 23.5 µg/mL
- Stability of Vitamin Es in AB Red ([2]; 30 days): 24.2 µg/mL
- Stability of Vitamin Es in AB Red ([2]; 60 days): 24.2 µg/mL
- Stability of Vitamin Es in AB Red ([2]; 90 days): 23.1 µg/mL
- Stability of Vitamin Es in AB Red ([2]; 120 days): 25.2 µg/mL
- Stability of Vitamin Es in AB Red ([2]; 150 days): 25.4 µg/mL
- Stability of Vitamin Es in AB Red ([2]; 180 days): 23.6 µg/mL
- Stability of Vitamin Es in AB Red ([2]; 210 days): 23.5 µg/mL
- Stability of Vitamin Es in AB Red ([2]; 240 days): 23.6 µg/mL
- Stability of Vitamin Es in AB Red ([2]; 270 days): 23.6 µg/mL
- Stability of Vitamin Es in AB Red ([2]; 300 days): 23.1 µg/mL
- Stability of Vitamin Es in AB Red ([2]; 330 days): 22.9 µg/mL
